# Read-outs that look alike come from different tables or passages of the source.
# Test system: AGS cells (KRAS^G12D)
# Assay: Detection of cell proliferation in vitro by MTT/MTS method (cell activity experiment)
# Format: cell-based
# Conditions: AGS cells, MTT/MTS, 3 days of drug treatment, read-out: AGS IC50
# Summary of the method: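 After 3-day compound exposure (final DMSO 0.5%), viability of AGS (KRAS G12D) cells, plated 1000/well one day before dosing, was measured at 490 nm following 4 h MTT or MTS incubation. IC50 was fitted from dose–effect curves relative to DMSO-treated wells.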
Structure (SMILES),"IC50 (Homo sapiens, AGS, 72 h)",IC50
"C#Cc1c(F)ccc2cc(O)cc(-c3ccc4c(N5C[C@H]6CC[C@@H](C5)N6)nc(OC[C@@]56CCCN5C[C@H](F)C6)nc4n3)c12 [Example 140, 4-(4-((1R,5S)-3,8-diazabicyclo[3.2.1]octan-3-yl)-2-(((2R, 7aS)-2-fluorotetrahydro-1H-pyrrolizin-7a(5H)-yl)methoxy)pyrido[2,3-d]pyrimidin-7-yl)-5-ethynyl-6-fluoronaphthalen-2-ol]",> 2500 nM,–
"C#Cc1c(F)ccc2cc(O)cc(-c3ccc4c(N5CCC6(CC5)CO[C@@H](C)[C@H]6N)nc(OC[C@@]56CCCN5C[C@H](F)C6)nc4c3F)c12 [Example 114, 4-(4-((3S,4S)-4-amino-3-methyl-2-oxa-8-azaspiro[4.5]decan-8-yl)-8-fluoro-2-(((2R, 7aS)-2-fluorotetrahydro-1H-pyrrolizin-7a(5H)-yl)methoxy)quinazolin-7-yl)-5-ethynyl-6-fluoronaphthalen-2-ol]",> 2500 nM,–
"C#Cc1nccc2cc(O)cc(-c3ncc4c(NCC5(N(C)C)CCC5)nc(OC[C@@]56CCCN5C[C@H](F)C6)nc4c3F)c12 [Example 424, 8-(4-(((1-(dimethylamino)cyclobutyl)methyl)amino)-8-fluoro-2-(((2R,7aS)-2-fluorotetrahydro-1H-pyrrolizin-7a(5H)-yl)methoxy)pyrido[4,3-d]pyrimidin-7-yl)-1-ethynylisoquinolin-6-ol]",30 nM,–
"CCc1c(F)ccc2cc(O)cc(-c3ncc4c(C5C[C@H]6CC[C@@H](C5)N6)nc(OC[C@@]56CCCN5C[C@H](F)C6)nc4c3F)c12 (stereo partly drawn) [Example 80, 4-(4-((1R,5S)-8-azabicyclo[3.2.1]octan-3-yl)-8-fluoro-2-(((2R,7aS)-2-fluorotetrahydro-1H-pyrrolizin-7a(5H)-yl)methoxy)pyrido[4,3-d]pyrimidin-7-yl)-5-ethyl-6-fluoronaphthalen-2-ol]",> 2500 nM,–
"Oc1cc(-c2ccc3c(N4C[C@H]5CC[C@@H](C4)N5)nc(OCC4(CN5CCCC5)CC4)nc3c2F)c2c(F)c(F)ccc2c1 [Example 101, 4-(4-((1R,5S)-3,8-diazabicyclo[3.2.1]octan-3-yl)-8-fluoro-2-((1-(pyrrolidin-1-ylmethyl)cyclopropyl)methoxy)quinazolin-7-yl)-5,6-difluoronaphthalen-2-ol]",9.4 nM,–
"Oc1cc2c(c(-c3ncc4c(N5C[C@H]6CC[C@@H](C5)N6)nc(OC[C@@]56CCCN5C[C@H](F)C6)nc4c3F)c1)CCCC2 [Example 419, 4-(4-((1R,5S)-3,8-diazabicyclo[3.2.1]octan-3-yl)-8-fluoro-2-(((2R,7aS)-2-fluorotetrahydro-1H-pyrrolizin-7a(5H)-yl)methoxy)pyrido[4,3-d]pyrimidin-7-yl)-5,6,7,8-tetrahydronaphthalen-2-ol]",–,14 nM
"C#Cc1c(F)ccc2cc(O)cc(-c3ncc4c(N5C[C@H]6CC[C@@H](C5)N6)nc(OCC56CCN(C)C5COC6)nc4c3F)c12 (stereo partly drawn) [Example 75, 4-(4-((1R,5S)-3,8-diazabicyclo[3.2.1]octan-3-yl)-8-fluoro-2-((1-methyltetrahydro-1H-furo[3,4-b]pyrrol-3a(4H)-yl)methoxy)pyrido[4,3-d]pyrimidin-7-yl)-5-ethynyl-6-fluoronaphthalen-2-ol]",> 2500 nM,–
"C#Cc1c(F)ccc2cc(O)cc(-c3ncc4c(N5CCC6(CCCS6(=O)=O)CC5)nc(OC[C@@]56CCCN5C[C@H](F)C6)nc4c3F)c12 [Example 50, 8-(7-(8-ethynyl-7-fluoro-3-hydroxynaphthalen-1-yl)-8-fluoro-2-(((2R, 7aS)-2-fluorotetrahydro-1H-pyrrolizin-7a(5H)-yl)methoxy)pyrido[4,3-d]pyrimidin-4-yl)-1-thia-8-azaspiro[4.5] decane 1,1-dioxide]",> 10000 nM,–
"C#Cc1c(F)ccc2cc(O)cc(-c3ccc4c(N5C[C@H]6CC[C@@H](C5)N6)nc(OC[C@]56CCCN5[C@@H](COC(=O)N(C)C)CC6)nc4c3)c12 [Example 153, ((3R,7aR)-7a-(((4-((1R, 5S)-3,8-diazabicyclo [3.2.1]octan-3-yl)-7-(8-ethynyl-7-fluoro-3-hydroxynaphthalen-1-yl)quinazolin-2-yl)oxy)methyl)hexahydro-1H-pyrrolizin-3-yl) methyl dimethylcarbamate]",–,190 nM
"Oc1cc2c(c(-c3ccc4c(N5C[C@H]6CC[C@@H](C5)N6)nc(OC[C@@]56CCCN5C[C@H](F)C6)nc4c3F)c1)C=CC2 [Example 306, 4-(4-((1R,5S)-3,8-diazabicyclo[3.2.1]octan-3-yl)-8-fluoro-2-(((2R,7aS)-2-fluorotetrahydro-1H-pyrrolizin-7a(5H)-yl)methoxy)quinazolin-7-yl)-1H-inden-6-ol]",366 nM,–
"Cc1cc(N)nc(-c2ncc3c(N4C[C@H]5CC[C@@H](C4)N5)nc(OCC4(CN5CCCC5)CC4)nc3c2F)c1C1CC1 [Example 9, 6-(4-((1R,5S)-3,8-diazabicyclo[3.2.1]octan-3-yl)-8-fluoro-2-((1-(pyrrolidin-1-ylmethyl)cyclopropyl)methoxy)pyrido[4,3-d]pyrimidin-7-yl)-5-cyclopropyl-4-methylpyridin-2-amine]",> 1000 nM,–
"CCC1CCCc2cc(O)cc(-c3ccc4c(N5C[C@H]6CC[C@@H](C5)N6)nc(OC[C@@]56CCCN5C[C@H](F)C6)nc4c3F)c21 (stereo partly drawn) [Example 289, 4-(4-((1R,5S)-3,8-diazabicyclo[3.2.1]octan-3-yl)-8-fluoro-2-(((2R,7aS)-2-fluorotetrahydro-1H-pyrrolizin-7a(5H)-yl)methoxy)quinazolin-7-yl)-5-ethyl-5,6,7,8-tetrahydronaphthalen-2-ol]",15 nM,–
"Oc1cc(-c2ccc3c(N4C[C@H]5CC[C@@H](C4)N5)nc(OC[C@@]45CCCN4C[C@H](F)C5)nc3c2F)c2c(c1)C1CC1C2 (stereo partly drawn) [Example 294, 5-(4-((1R,5S)-3,8-diazabicyclo[3.2.1]octan-3-yl)-8-fluoro-2-(((2R,7aS)-2-fluorotetrahydro-1H-pyrrolizin-7a(5H)-yl)methoxy)quinazolin-7-yl)-1,1a,6,6a-tetrahydrocyclopropa[a]inden-3-ol]",65 nM,–
"C#Cc1c(F)ccc2cc(O)cc(-c3ccc4c(N5C[C@H]6CC[C@@H](C5)S6(=O)=O)nc(OC[C@@]56CCCN5C[C@H](F)C6)nc4c3F)c12 [Example 160, (1R,5S)-3-(7-(8-ethynyl-7-fluoro-3-hydroxynaphthalen-1-yl)-8-fluoro-2-(((2R,7aS)-2-fluorotetrahydro-1H-pyrrolizin-7a(5H)-yl)methoxy)quinazolin-4-yl)-8-thia-3-azabicyclo[3.2.1]octane 8,8-dioxide]",> 2500 nM,–
"CCC1CCc2cc(O)cc(-c3c4c(c5c(N6C[C@H]7CC[C@@H](C6)N7)nc(OC[C@@]67CCCN6C[C@H](F)C7)nc5c3F)OCO4)c21 (stereo partly drawn) [Example 394, 7-(9-((1R,5S)-3,8-diazabicyclo[3.2.1]octan-3-yl)-5-fluoro-7-(((2R,7aS)-2-fluorotetrahydro-1H-pyrrolizin-7a(5H)-yl)methoxy)-[1,3]dioxolo[4,5-f]quinazolin-4-yl)-1-ethyl-2,3-dihydro-1H-inden-5-ol]",75 nM,–
"C#Cc1c(F)ccc2cc(O)cc(N3CCc4c(nc(OC[C@]56CCCN5[C@@H](COC(=O)N(C)C)CC6)nc4N4C[C@H]5CC[C@@H](C4)N5)C3)c12 [Example 209, ((3R,7aR)-7a-(((4-((1R,5S)-3,8-diazabicyclo[3.2.1]octan-3-yl)-7-(8-ethynyl-7-fluoro-3-hydroxynaphthalen-1-yl)-5,6,7,8-tetrahydropyrido[3,4-d]pyrimidin-2-yl)oxy)methyl)hexahydro-1H-pyrrolizin-3-yl)methyl dimethylcarbamate]",35 nM,–
"CC1OCCc2cc(O)cc(-c3ncc4c(N5C[C@H]6CC[C@@H](C5)N6)nc(OC[C@@]56CCCN5C[C@H](F)C6)nc4c3F)c21 (stereo partly drawn) [Example 356, 8-(4-((1R,5S)-3,8-diazabicyclo[3.2.1]octan-3-yl)-8-fluoro-2-(((2R,7aS)-2-fluorotetrahydro-1H-pyrrolizin-7a(5H)-yl)methoxy)pyrido[4,3-d]pyrimidin-7-yl)-1-methylisochroman-6-ol]",21 nM,–
"C#Cc1c(F)ccc2cc(O)cc(-c3ccc4c(N5CC6(CNC6)C5)nc(OC[C@@]56CCCN5C[C@H](F)C6)nc4c3F)c12 [Example 135, 5-ethynyl-6-fluoro-4-(8-fluoro-2-(((2R, 7aS)-2-fluorotetrahydro-1H-pyrrolizin-7a(5H)-yl)methoxy)-4-(2,6-diazaspiro[3.3]heptan-2-yl)quinazolin-7-yl)naphthalen-2-ol]",1200 nM,–
"C#Cc1c(F)ccc2cc(O)cc(-c3ccc4c(N5C[C@H]6CC[C@@H](C5)N6)nc(OC[C@]56CCCN5[C@@H](COC(=O)N(C)C)CC6)nc4c3F)c12 [Example 96, ((3R,7aR)-7a-(((4-((1R,5S)-3,8-diazabicyclo[3.2.1]octan-3-yl)-7-(8-ethynyl-7-fluoro-3-hydroxynaphthalen-1-yl)-8-fluoroquinazolin-2-yl)oxy)methyl)hexahydro-1H-pyrrolizin-3-yl)methyl dimethylcarbamate]",7.9 nM,–
"Nc1cc2ccccc2c(-c2ncc3c(N4C[C@H]5CC[C@@H](C4)N5)nc(OCC4(CN5CCCC5)CC4)nc3c2F)n1 [Example 7, 1-(4-((1R,5S)-3,8-diazabicyclo[3.2.1]octan-3-yl)-8-fluoro-2-((1-(pyrrolidin-1-ylmethyl)cyclopropyl)methoxy)pyrido[4,3-d]pyrimidin-7-yl)isoquinolin-3-amine]",2580 nM,–
"C#Cc1c(F)ccc2cc(O)cc(-c3ncc4c(N5CCC(NS(C)(=O)=O)C5)nc(OC[C@@]56CCCN5C[C@H](F)C6)nc4c3F)c12 (stereo partly drawn) [Example 59, N-(1-(7-(8-ethynyl-7-fluoro-3-hydroxynaphthalen-1-yl)-8-fluoro-2-(((2R, 7aS)-2-fluorotetrahydro-1H-pyrrolizin-7a(5H)-yl)methoxy)pyrido[4,3-d]pyrimidin-4-yl)pyrrolidin-3-yl) methanesulfonamide]",> 2500 nM,–
